Experimental data reported in US20240309015A1, “Methods for the Treatment of Fibrotic Disease” (SHY Therapeutics, LLC, priority 2021, published 2024).

Columns and labels:
KRas wild type = assay: Ras GTP Binding Domain Inhibition Assay, KRas wild type; details: at 20 μM; for KRas wild type + SOS: % inh.: with SOS; for KRas wild type: % inh.: without SOS
Experimental: (§1) A Ras Superfamily Activity Assay (as disclosed in International Application No. PCT/US2018/038613, filed Jun. 20, 2018, which is incorporated by reference in its entirety) was used as a specific assay to evaluate compounds against the following for the following Ras Superfamily proteins: KRas wild type, KRas Q61H mutant, KRas G12C mutant, KRas G12D mutant, Rac-1, and Rho-A.
(§2) Buffer-I: • 25 mM Tris-HCl, pH 7.4 • 27 mM KCl • 137 mM NaCl • 1 mM MgCl2 • 1 mM DTT
(§3) Buffer-IL: • 50 mM Tris-HCl, pH 7.0 • 1 mM MgCl2 • 1 mM DTT
(§4) The small GTPases proteins: KRas wild type. KRas Q61H mutant, KRas G12C mutant, KRas G12D mutants, Rac-1, and Rho-A were expressed as His-tagged proteins. In addition, the Guanosine nucleotide Exchange Factor (GEF) Sos protein (residues 556-1049) was expressed as a His-tagged protein. In cells, the guanine nucleotide exchange factor Sos protein promotes activation of Ras proteins by stimulating an exchange of GDP for GTP. The inclusion of Sos to the Ras GTP binding domain inhibition assay may be considered as an alternative representation of physiological cellular conditions for evaluating the inhibitory activity of some of the tested small molecules.
(§5) For the assay, all purified small GTPases proteins were diluted in Buffer-I or Buffer-II to a final concentration of 10-30 μg/mL. 200 μL of each diluted protein was added to a nickel-coated 96-well plate and incubated overnight at 4° C. Then the protein solution was discarded and 200 μL of Buffer-I or Buffer-II was added to each well in the presence of 1% DMSO. Compounds to be tested were added to the protein-coated wells at final concentration of 20 μM, and incubated for 3 hours at room temperature with and without 10-30 μg/mL of Sos added to the final hour of the incubation. When performing IC50 measurements a serial dilution of all tested concentrations was added. Then Cy3-GTP or Cy5-GTP was added to each well to a final concentration of 100 nM. The labeled GTP was incubated for 45 minutes at room temperature. Following GTP incubation, wells were washed 3× in Buffer-I or Buffer-II and 200 μL of Buffer-I or Buffer-II was added to each well. Following washes, the amount of bound labeled-GTP was measured using a SpectraMax M3 (Molecular Devices).

KRas G12D mutant = assay: Ras GTP Binding Domain Inhibition Assay, KRas G12D mutant; details: at 20 μM; for KRas G12D mutant + SOS: % inh.: with SOS; for KRas G12D mutant: % inh.: without SOS
Experimental: as §1, §2, §3, §4, §5

KRas G12C mutant = assay: Ras GTP Binding Domain Inhibition Assay, KRas G12C mutant; details: at 20 μM; for KRas G12C mutant + SOS: % inh.: with SOS; for KRas G12C mutant: % inh.: without SOS
Experimental: as §1, §2, §3, §4, §5

Rho-A = assay: Ras GTP Binding Domain Inhibition Assay, Rho-A; details: at 20 μM; for Rho-A + SOS: % inh.: with SOS; for Rho-A: % inh.: without SOS
Experimental: as §1, §2, §3, §4, §5

| SMILES | KRas wild type + SOS: % inh. (KRas wild type) | KRas wild type: % inh. (KRas wild type) | KRas G12D mutant + SOS: % inh. (KRas G12D mutant; Table 7) | KRas G12D mutant + SOS: % inh. (KRas G12D mutant; Table 8) | KRas G12D mutant: % inh. (KRas G12D mutant; Table 7) | KRas G12D mutant: % inh. (KRas G12D mutant; Table 8) | KRas G12C mutant + SOS: % inh. (KRas G12C mutant) | KRas G12C mutant: % inh. (KRas G12C mutant) | Rho-A + SOS: % inh. (Rho-A) | Rho-A: % inh. (Rho-A) |
| --- | --- | --- | --- | --- | --- | --- | --- | --- | --- | --- |
| COc1cccc(-c2sc3nc(-c4nccn4C)nc(NC4CCC(OC)C4)c3c2C)c1F (racemic) [Compound 10, rac-6-(2-Fluoro-3-methoxyphenyl)-N-((1R,3S)-3-methoxycyclopentyl)-5-methyl-2-(1-methyl-1H-imidazol-2-yl)thieno[2,3-d]pyrimidin-4-amine and rac-6-(2-Fluoro-3-methoxyphenyl)-N-((1R,3R)-3-methoxycyclopentyl)-5-methyl-2-(1-methyl-1H-imidazol-2-yl)thieno[2,3-d]pyrimidin-4-amine] | C (C = 46-75% inhibition) | C (C = 46-75% inhibition) | C (C = 46-75% inhibition) | C (C = 46-75% inhibition) | D (D = 76-100% inhibition) | D (D = 76-100% inhibition) | C (C = 46-75% inhibition) | D (D = 76-100% inhibition) | D (D = 76-100% inhibition) | D (D = 76-100% inhibition) |
| CO[C@H]1CC[C@@H](Nc2nc(-c3nccn3C)nc3sc(-c4ccn(C(C)C)n4)c(C)c23)C1 (racemic) [Compound 12, rac-6-(1-Isopropyl-1H-pyrazol-3-yl)-N-((1R,3S)-3-methoxycyclopentyl)-5-methyl-2-(1-methyl-1H-imidazol-2-yl)thieno[2,3-d]pyrimidin-4-amine] | D (D = 76-100% inhibition) | D (D = 76-100% inhibition) | C (C = 46-75% inhibition) | C (C = 46-75% inhibition) | C (C = 46-75% inhibition) | C (C = 46-75% inhibition) | D (D = 76-100% inhibition) | C (C = 46-75% inhibition) | D (D = 76-100% inhibition) | D (D = 76-100% inhibition) |
| COC1CCN(c2nc(-c3nccn3C)nc3sc(-c4ccn(C)n4)c(-c4ccccc4)c23)CC1 [Compound 6, 4-(4-Methoxypiperidin-1-yl)-2-(1-methyl-1H-imidazol-2-yl)-6-(1-methyl-1H-pyrazol-3-yl)-5-phenylthieno[2,3-d]pyrimidine] | B (B = 26-45% inhibition) | 0 (0 = 0% inhibition) | B (B = 26-45% inhibition) | B (B = 26-45% inhibition) | B (B = 26-45% inhibition) | B (B = 26-45% inhibition) | C (C = 46-75% inhibition) | B (B = 26-45% inhibition) | 0 (0 = 0% inhibition) | 0 (0 = 0% inhibition) |
| COCCNc1nc(-c2cn(C)cn2)nc2sc(-c3cccc(OC)c3Cl)c(-c3ccc(OC)cc3)c12 [Compound 8, 6-(2-Chloro-3-methoxyphenyl)-N-(2-methoxyethyl)-5-(4-methoxyphenyl)-2-(1-methyl-1H-imidazol-4-yl)thieno[2,3-d]pyrimidin-4-amine] | D (D = 76-100% inhibition) | C (C = 46-75% inhibition) | B (B = 26-45% inhibition) | B (B = 26-45% inhibition) | B (B = 26-45% inhibition) | B (B = 26-45% inhibition) | D (D = 76-100% inhibition) | B (B = 26-45% inhibition) | C (C = 46-75% inhibition) | C (C = 46-75% inhibition) |
| CO[C@@H]1CC[C@H](Nc2nc(-c3nccn3C)nc3sc(-c4ccn(C(C)C)n4)c(-c4ccccc4)c23)C1 [Compound 11, 6-(1-Isopropyl-1H-pyrazol-3-yl)-N-((1S,3R)-3-methoxycyclopentyl)-2-(1-methyl-1H-imidazol-2-yl)-5-phenylthieno[2,3-d]pyrimidin-4-amine] | D (D = 76-100% inhibition) | C (C = 46-75% inhibition) | C (C = 46-75% inhibition) | C (C = 46-75% inhibition) | C (C = 46-75% inhibition) | C (C = 46-75% inhibition) | D (D = 76-100% inhibition) | C (C = 46-75% inhibition) | B (B = 26-45% inhibition) | B (B = 26-45% inhibition) |

Now from value to compound:

| KRas wild type + SOS: % inh. (KRas wild type) | KRas wild type: % inh. (KRas wild type) | KRas G12D mutant + SOS: % inh. (KRas G12D mutant; Table 7) | KRas G12D mutant + SOS: % inh. (KRas G12D mutant; Table 8) | KRas G12D mutant: % inh. (KRas G12D mutant; Table 7) | KRas G12D mutant: % inh. (KRas G12D mutant; Table 8) | KRas G12C mutant + SOS: % inh. (KRas G12C mutant) | KRas G12C mutant: % inh. (KRas G12C mutant) | Rho-A + SOS: % inh. (Rho-A) | Rho-A: % inh. (Rho-A) | SMILES |
| --- | --- | --- | --- | --- | --- | --- | --- | --- | --- | --- |
| A (A = 1-25% inhibition) | A (A = 1-25% inhibition) | A (A = 1-25% inhibition) | A (A = 1-25% inhibition) | D (D = 76-100% inhibition) | D (D = 76-100% inhibition) |  | C (C = 46-75% inhibition) |  | C (C = 46-75% inhibition) | COCCNc1nc(-c2nccn2C)nc2sc(-c3ccccc3)c(-c3ccccc3)c12 [Compound 1, N-(2-Methoxyethyl)-2-(1-methyl-1H-imidazol-2-yl)-5,6-diphenylthieno[2,3-d]pyrimidin-4-amine] |
|  | C (C = 46-75% inhibition) |  |  | C (C = 46-75% inhibition) | C (C = 46-75% inhibition) |  | B (B = 26-45% inhibition) |  | B (B = 26-45% inhibition) | COCCN(C)c1nc(-c2nccn2C)nc2sc(-c3ccccc3)c(-c3ccccc3)c12 [Compound 2, N-(2-Methoxyethyl)-N-methyl-2-(1-methyl-1H-imidazol-2-yl)-5,6-diphenylthieno[2,3-d]pyrimidin-4-amine] |
| A (A = 1-25% inhibition) | C (C = 46-75% inhibition) | A (A = 1-25% inhibition) | A (A = 1-25% inhibition) | C (C = 46-75% inhibition) | C (C = 46-75% inhibition) |  | C (C = 46-75% inhibition) |  | C (C = 46-75% inhibition) | COCCCNc1nc(-c2nccn2C)nc2sc(-c3ccccc3)c(-c3ccccc3)c12 [Compound 3, N-(3-Methoxypropyl)-2-(1-methyl-1H-imidazol-2-yl)-5,6-diphenylthieno[2,3-d]pyrimidin-4-amine] |
|  | A (A = 1-25% inhibition) |  |  | B (B = 26-45% inhibition) | B (B = 26-45% inhibition) |  | B (B = 26-45% inhibition) |  | B (B = 26-45% inhibition) | COCCNc1nc(-c2nccn2C)nc2sc(-c3ccccc3)c(-c3ccccc3Cl)c12 [Compound 4, 5-(2-Chlorophenyl)-N-(2-methoxyethyl)-2-(1-methyl-1H-imidazol-2-yl)-6-phenylthieno[2,3-d]pyrimidin-4-amine] |
| D (D = 76-100% inhibition) | D (D = 76-100% inhibition) | D (D = 76-100% inhibition) | D (D = 76-100% inhibition) | C (C = 46-75% inhibition) | C (C = 46-75% inhibition) | D (D = 76-100% inhibition) | D (D = 76-100% inhibition) | D (D = 76-100% inhibition) | D (D = 76-100% inhibition) | COCCn1ccnc1-c1nc(N[C@H]2C[C@@H](OC)C2)c2c(-c3ccccc3)c(-c3ccn(C)n3)sc2n1 [Compound 13, N-((1s,3s)-3-methoxycyclobutyl)-2-(1-(2-methoxyethyl)-1H-imidazol-2-yl)-6-(1-methyl-1H-pyrazol-3-yl)-5-phenylthieno[2,3-d]pyrimidin-4-amine] |
